The values that follow are results of earlier work, collected in PMC12794188, “Maternal–Fetal Transfer and Toxicokinetics of 2,2′,5,5′-Tetrachlorobiphenyl, [^14C]-PCB52, Following Intratracheal Administration” (Chemical Research in Toxicology, 2025).

The half-life is the time needed for the level to fall by half in the phase considered.

Details of this data set: method as in Pu et al. The settings on record: ref Pu et al., cited from earlier work.

On to `Clc1ccc(Cl)c(-c2cc(Cl)ccc2Cl)c1` [PCB52, 2,2′,5,5′-Tetrachlorobiphenyl], for which the half-life (intravenous administration in male rats) is given as roughly 10 days. Moreover, the half-life estimate (intravenous, male rats, measured only up to 72 h postdosing) was 10 days.
